{
  "source": "patent US9155289B2",
  "about": "“Methods concerning PPAR delta and antagonists thereof” (University Court of the University of Dundee, priority 2008, dated 2015)",
  "key": {"PPARδ transgenic mice": {"tested_on": "PPARδ transgenic mice", "experiment": "Skin phenotype in PPARδ transgenic mice after PPARδ activation", "type": "in vivo, mouse", "procedure": "FIG. 5. Skin phenotype in PPARδ transgenic mice twenty days after beginning of GW501516 (GW) administration. (FIGS. 5a-5c) Gross morphology, (FIGS. 5d-5e) H&E histology of control mice not treated with GW (5d), or fourteen days after induction (5e-5g). Magnification 200× (5d,5e) or 400× (5f). (5g) Immunostaining for Ki67 of skin from PPARδ transgenic mice maintained in the absence (left) or presence (right) of GW. Magnification 200×. (5h) Induction of skin disease by topical application of either 0.3% of indole-3-carbinole (I3C, left) or I3C plus 0.3% GW501516 once daily to shaved abdominal skin. Gross macroscopic phenotype (top) and H&E histology of treated skin (bottom) was documented 10 days after beginning of treatment; and\nMice were generated which are inducible to overexpress human PPARδ in the skin and a wide range of other tissues and organs, including the spleen, under the control of the CYP1A1 promoter. The CYP1A1 dioxin-responsive promoter was initially chosen because it is known to be transactivated by the aryl hydrocarbon receptor (AHR) upon binding of specific AHR agonist ligands. (Campbell et al., Regulation of the CYP1A1 promoter in transgenic mice: an exquisitely sensitive on-off system for cell specific gene regulation, J. Cell Science, 1996, 109 (Pt. 11), 2619-2625).\nThe mice were generated by cloning full-length human PPARδ downstream of the human CYP1A1 promoter. Plasmids encoding human PPARδ were prepared by the following protocol. The coding sequences of PPARδ, were amplified using primers PRMG15 (5′-[…]-3′) and PR MG3 (5′-[…]-3′), respectively (XbaI-sites underlined, ATG start codon in bold). The PCR products were cleaved with XbaI and cloned in plasmid pUHD10-3 (M. Gossen, unpublished, Genbank accession number U89931) creating pMGD7 (PPARδ). The integrity of the inserts were confirmed by sequencing and cleaved out using BamHI and ligated into plasmid pAHIR1-β-gal (Campbell, 1996} cleaved with BglII, resulting in the plasmid pMGD72 (PPARδ). The proper orientations of the inserts were confirmed by restriction endonuclease analysis and sequencing. Transgenic mice were generated by microinjection of the expression unit (NotI fragment) of the plasmid pMGD72 into pro-nuclei of C57BL/J6×CBA F1 fertilized eggs. Mice were maintained under standard animal house conditions.\nIn a first study, indole-3-carbinole (I3C) introduced into the chow at a final concentration of 0.5% (w/w), for one week, was used to induce expression of PPARδ. The resulting translated protein was conformationally activated by the specific PPARδ ligand GW-501516 (2-Methyl-4-((4-methyl-2-(4-trifluoromethylphenyl)-1,3-thiazol-5-yl)-methylsulfanyl)phenoxy-acetic acid), added in powdered form to the chow at a concentration of 0.003% (w/w) for an additional 16 days. This activation mechanism is illustrated in FIG. 1. Thus, PPARδ can be transcriptionally activated and conformationally activated by concurrent feeding with I3C and GW-501516."}, "human PPARδ": {"tested_on": "human PPARδ", "settings": "mouse, in vivo", "procedure": "FIG. 2(a) illustrates Western blot analyses of 10 μg of total protein extract of transgenic mice fed I3C or control diet in an experiment in which PPARδ expression was induced in mice harbouring CYP1A1-controlled PPARδ by oral administration of indole-3-carbinol (I3C) for seven days (top); and an experiment in which PPARδ was expressed by feeding of I3C and activated by additional administration of the specific PPARδ ligand GW-501516 (GW) for 25 days (bottom); FIG. 2(b) is a close-up photograph of the macroscopic phenotype of mice receiving both I3C and GW-501516 administration; FIG. 2(c) is a photograph of standard H&E histology stains prepared from abdominal skin of the animals shown in FIG. 2(a);\nFIG. 3 illustrates experimental results from arising from the inducible expression of PPARδ in mouse epidermis. FIG. 3(a) Cis-regulatory elements in the rat CYP1A1 promoter used to drive inducible expression of human PPARδ. Upper panel: Map of the sebaceous-specific G/C-box element and the AHR-responsive DXE/XRE cluster in the cyp1A1 promoter as well as the human K5 promoter. Bottom panel: ClustalW alignment of promoters identified by a BLAST search using the 20 bp G/C element of the Cyp1A1 promoter. All of the genes shown were found in the top 10% percentile of all transcripts expressed in human sebaceous glands (GDS3215 at the NCBI GEO website www.ncbi.nlm.nih.gov/geo/). FIG. 3(b) illustrates immunohistochemistry using anti-PPARδ of mice transgenic for human PPARδ driven by the rat CYP1A promoter (PPARδ TG), as well as wild type mice. Magnification 200×; FIG. 3(c) illustrates immunohistochemistry of abdominal skin samples from PPARδ transgenic mice taken at the indicated times after initiation of PPARδ activation mediated by administration of the synthetic ligand GW501516 in the chow; FIG. 3(d) illustrates PPARδ immunohistochemistry 48 h after topical application of indole-3-carbinole (I3C) to the skin of PPARδ transgenic mice at 200× (left) and 400× (right) magnification; […]"}, "unmodified mice": {"tested_on": "unmodified mice", "experiment": "Control experiments in unmodified mice", "type": "in vivo, mouse", "settings": "GW-501516 administered to unmodified mice", "procedure": "The mice were prepared for the purposes of studies concerning a wide range of cancer phenotypes and liver fat accumulation."}, "[1]": {"settings": "cited from earlier work"}},
  "data": [
    {"smiles": "OCc1c[nH]c2ccccc12", "note": "[I3C, indole-3-carbinole]", "values": [
      {"measurement": "skin changes", "setting": "PPARδ transgenic mice; prolonged chow with I3C 0.5% w/w, in the absence of PPARδ activation", "result": "caused no skin changes"},
      {"measurement": "skin phenotype", "setting": "PPARδ transgenic mice; topical I3C alone to the skin", "result": "unable to elicit a phenotype"},
      {"measurement": "PPARδ expression in skin", "setting": "human PPARδ", "result": "inducible"},
      {"measurement": "PPARδ expression in skin and lymph nodes", "setting": "human PPARδ", "result": "strong induction of PPARδ expression"}
    ]},
    {"smiles": "Cc1cc(SCc2sc(-c3ccc(C(F)(F)F)cc3)nc2C)ccc1OCC(=O)O", "note": "[GW-501516, 2-Methyl-4-((4-methyl-2-(4-trifluoromethylphenyl)-1,3-thiazol-5-yl)-methylsulfanyl)phenoxy-acetic acid]", "values": [
      {"measurement": "skin phenotype (scaling, erythema, skin thickening)", "setting": "PPARδ transgenic mice; GW501516 alone, without I3C, as early as seven days after initiation", "result": "scaling, erythema formation, and skin thickening was notable in all PPARδ transgenic mice"},
      {"measurement": "skin phenotype (scaling, skin thickening, inflammation)", "setting": "PPARδ transgenic mice; PPARδ induced by I3C feeding (0.5% w/w chow), activated by GW-501516 0.003% w/w in chow, after 25 days", "result": "a dramatic skin phenotype was observed"},
      {"measurement": "skin phenotype", "setting": "PPARδ transgenic mice; topical I3C plus additional topical GW501516 (0.3% each, once daily, 10 days)", "result": "effectively replicated"},
      {"measurement": "psoriatic symptoms", "setting": "unmodified mice", "result": "no psoriatic symptoms were observed"},
      {"measurement": "PPARδ expression in the epidermis", "setting": "human PPARδ", "result": "strong expression of PPARδ in the epidermis"}
    ]},
    {"smiles": "COC(=O)c1sccc1S(=O)(=O)Nc1ccc(Nc2ccccc2)cc1OC", "note": "[GSK 0660, methyl 3-({[2-(methoxy)-4-phenyl]amino}sulfonyl)-2-thiophenecarboxylate]", "values": [
      {"measurement": "in vivo bioavailability", "setting": "[1]", "result": "lacks in vivo bioavailability"}
    ]}
  ]
}
